≈ marks a conversion by molar mass, not a printed value.
How the values were obtained:
Assay type in all cases: cell-based
S. aureus CJ247 = experiment: MIC, agar diffusion, S. aureus CJ247; conditions: Staphylococcus aureus, read-out: in vitro activities MIC
Excerpt: (§1) In vitro investigations have shown a relatively high potency of compounds of the invention against all bacteria including gram-positive and gram-negative strains (Staphylococci, Streptococci, Corynebacteriae, Mycobacteriae, Proteus, Propionibacterium, Pseudomonas, Neisseriae, E. coli) and fungal strains (Candida and Aspergillus). […] In addition, the studies of post-antibiotic effects point towards a strong bactericidal effect of the compounds of the invention. […] The potency of new polyaminated fusidic acid analogues is estimated by comparing the inhibition of growth of different microorganisms produced by known concentrations of the analogue to be examined and a reference compound such as fusidic acid. The microbiological assay set up is in agreement with the European Pharmacopoeia 3rd edition (1997). It is an agar diffusion method where the same volume of the tested solution is added to cavities in agar. The inhibition zones are function of the concentration of the fusidic acid analogue used. All assays are run with fusidic acid as reference substance.

S. aureus CJ200 = experiment: MIC, agar diffusion, S. aureus CJ200; conditions: Staphylococcus aureus, read-out: in vitro activities MIC
Excerpt: as §1

S. aureus CJ234R = experiment: MIC, agar diffusion, S. aureus CJ234R; conditions: Staphylococcus aureus, MRSA, read-out: in vitro activities MIC
Excerpt: as §1

S. aureus CJ234F = experiment: MIC, agar diffusion, S. aureus CJ234F; conditions: Staphylococcus aureus; S. aureus CJ234F (MRSA, Fus. resistant); read-out: in vitro activities MIC
Excerpt: as §1

S. aureus N6 = experiment: MIC, agar diffusion, S. aureus N6; conditions: Staphylococcus aureus; S. aureus N6 (Fus. resistant); read-out: in vitro activities MIC
Excerpt: as §1

S. epidermis CK5 = experiment: MIC, agar diffusion, S. epidermis CK5; conditions: Staphylococcus epidermidis, read-out: in vitro activities MIC
Excerpt: as §1

[1] = test system: Propionibacterium acnes FN33; experiment: MIC, agar diffusion, Propionibacterium acnes FN33; conditions: Cutibacterium acnes, read-out: in vitro activities MIC
Excerpt: as §1

[2] = test system: Corynebacterium xerosis FF; experiment: MIC, agar diffusion, Corynebacterium xerosis FF; conditions: read-out: in vitro activities MIC
Excerpt: as §1

[3] = test system: Streptococcus pyogenes EC88; experiment: MIC, agar diffusion, Streptococcus pyogenes EC88; conditions: read-out: in vitro activities MIC
Excerpt: as §1

[4] = test system: Streptococcus faecium EI19; experiment: MIC, agar diffusion, Streptococcus faecium EI19; conditions: Enterococcus faecium; Streptococcus faecium EI19 (Penicillin resistant); read-out: in vitro activities MIC
Excerpt: as §1

E. coli HA165 = experiment: MIC, agar diffusion, E. coli HA165; conditions: Escherichia coli, read-out: in vitro activities MIC
Excerpt: as §1

[5] = test system: Pseudomonas aeruginosa BA17; experiment: MIC, agar diffusion, Pseudomonas aeruginosa BA17; conditions: read-out: in vitro activities MIC
Excerpt: as §1

[6] = test system: Saccaromyces cervisiae ZZ7; experiment: MIC, agar diffusion, Saccaromyces cervisiae ZZ7; conditions: Saccharomyces cerevisiae, read-out: in vitro activities MIC
Excerpt: as §1

Candida albicans ZA = experiment: MIC, agar diffusion, Candida albicans ZA; conditions: read-out: in vitro activities MIC
Excerpt: as §1

Asbergillus niger ZM35 = experiment: MIC, agar diffusion, Asbergillus niger ZM35; conditions: Aspergillus niger, read-out: in vitro activities MIC
Excerpt: as §1

CC(C)CCCC(C(=O)NCCCNCCCNCCCN)[C@@H]1CC[C@@]2(C)C1C[C@@H](O)C1[C@@]3(C)CC[C@@H](O)[C@@H](C)C3CC[C@@]12C (stereo partly drawn) [Compound 145, 21-N-{[3′-({3′-[(3′-aminopropyl)amino]propyl}amino)propyl]}-16-desacetoxy-17R,20S,24,25-tetrahydrofusid-21-amide]
MIC (S. aureus CJ247): 1 mg/L (≈ 1.58 µM) | MIC (S. aureus CJ200): 1 mg/L (≈ 1.58 µM) | MIC (S. aureus CJ234R): 4 mg/L (≈ 6.32 µM) | MIC (S. aureus CJ234F): 1 mg/L (≈ 1.58 µM) | MIC (S. aureus N6): 1 mg/L (≈ 1.58 µM) | MIC (S. epidermis CK5): 1 mg/L (≈ 1.58 µM) | MIC [1]: 1 mg/L (≈ 1.58 µM) | MIC [2]: 1 mg/L (≈ 1.58 µM) | MIC [3]: 4 mg/L (≈ 6.32 µM) | MIC [4]: 4 mg/L (≈ 6.32 µM) | MIC (E. coli HA165): 4 mg/L (≈ 6.32 µM) | MIC [5]: 4 mg/L (≈ 6.32 µM) | MIC [6]: 4 mg/L (≈ 6.32 µM) | MIC (Candida albicans ZA): > 125 mg/L | MIC (Asbergillus niger ZM35): > 125 mg/L

CC(=O)O[C@H]1C[C@@]2(C)C(C[C@@H](O)C3[C@@]4(C)CC[C@@H](OC(C)=O)[C@@H](C)C4CC[C@@]32C)[C@@H]1[C@H](CCCC(C)C)C(=O)NCCCNCCCCNCCCN (stereo partly drawn) [Compound 173, 21-N-[3′-({4′-[(3′-aminopropyl)amino]butyl}amino)propyl]-3-OAc-17R,20S,24,25-tetrahydrofusid-21-amide]
MIC (S. aureus CJ247): 4 mg/L (≈ 5.35 µM) | MIC (S. aureus CJ200): 4 mg/L (≈ 5.35 µM) | MIC (S. aureus CJ234R): 1 mg/L (≈ 1.34 µM) | MIC (S. aureus CJ234F): 4 mg/L (≈ 5.35 µM) | MIC (S. aureus N6): 4 mg/L (≈ 5.35 µM) | MIC (S. epidermis CK5): 1 mg/L (≈ 1.34 µM) | MIC [1]: 4 mg/L (≈ 5.35 µM) | MIC [2]: 4 mg/L (≈ 5.35 µM) | MIC [3]: 4 mg/L (≈ 5.35 µM) | MIC (E. coli HA165): 4 mg/L (≈ 5.35 µM) | MIC [5]: 4 mg/L (≈ 5.35 µM) | MIC [6]: 4 mg/L (≈ 5.35 µM) | MIC (Candida albicans ZA): 125 mg/L (≈ 167 µM) | MIC (Asbergillus niger ZM35): 125 mg/L (≈ 167 µM)

— patent publication US20030087887A1, “Novel fusidic acid derivatives” (priority 2001, published 2003)
